Counter-ions that a name gives are not always drawn. Residues, ends and D or L forms follow the SMILES beside them. *: point of attachment. Cbz = O=C(OCc1ccccc1)*; CH2F = FC*
Columns and labels:
[1] = system: CGNs, DRG sensory neurons or NG108 cells on immobilized CNS myelin; experiment: neurite outgrowth assay on CNS myelin substrate; format: cell-based, rat; settings: for neurite outgrowth on immobilized CNS myelin: P7-9 rat CGNs and DRG sensory neurons; for neurite outgrowth on a CNS myelin substrate: 100 nM
Protocol: (§1) To assess the functional relevance of the activation of the PI3K, MEK and PLC-g pathways, we utilized a standard neurite outgrowth assay in which NG108 cells or cerebellar granule neurons (CGN) from postnatal day 7-9 (P7-9) rats were grown on immobilized recombinant MAG or myelin (5-10, 16). Pharmacological inhibitors of the individual pathways—LY294002 and wortmannin for PI3K, U0126 for MEK, and U73122 for PLC-g, were then added to assess whether and to what extent these inhibitors could overcome the inhibitory activity of MAG or of myelin. […] As MEK has been previously shown to be required for axon growth induced by chronic exposure to neurotrophins (14), but not for growth cone turning in acute responses to NGF gradients (12), our results of abolishing MAG inhibition by an MEK inhibitor imply that the MEK pathway can be required only for neurite outgrowth in response to external cues.
Based on the modulation of neurite outgrowth by modulating PKC activity, we predicted that inhibiting PKC activity might abolish or convert the inhibitory responses of neurons to MAG and other myelin-associated inhibitors. […] Based on existing evidence for the functional interactions between the PKA and PKC pathways (24), we conclude that both PKA and PKC act through parallel mechanisms in affecting neurite outgrowth. Although many PKC isoforms are expressed in the nervous system (25), our observations with phorbol ester and selective PKC inhibitors indicate the involvement of at least classical PKC isoforms whose activation is dependent on diacylglycerol (DAG) and calcium (24).
Screening for compounds that allow neurite outgrowth from postnatal day 7-9 rat cerebellar granule neurons (CGNs) on CNS myelin substrates, we identified several broad-specificity PKC inhibitors from a small molecule libraries. Based on their structure and substrate requirements, PKC isoforms can be divided into three classes: the Ca++ and second messenger diacylglycerol (DAG)-sensitive conventional PKCs (-α, -β, and -γ), the Ca++-independent but DAG-dependent novel PKCs (-δ, -ε, -η, -θ, and -μ), and the Ca++- and DAG-insensitive atypical PKCs (-ζ and -λ). We first examined PKC inhibitors with a higher specificity for the conventional class of PKC isotypes for their ability to promote neurite outgrowth on CNS myelin. These inhibitors included Chelerythrine, Calphostin, Bisindoleylmaleimide I, and Gö6976. Dose response experiments (in the range of 10 nM to 10 uM) were carried out for each PKC inhibitor.

[2] = system: NG108 cells and CGNs transfected with Akt forms; experiment: neurite outgrowth of Akt-transfected cells; format: cell-based, rat; parameters: effect on pro-growth effect of dominant negative Akt / cell survival / process extension of constitutively active Akt expressing NG108 cells: unit of the concentration uncertain
Excerpt: Having determined that the PI3K pathway is both activated and required in MAG signaling, we next examined whether Akt, a major downstream effector of PI3K in promoting cell survival (13, 17) and in determining the directionality of cell movement during chemotaxis (18), could account for the neurite inhibitory effect of MAG. To this end, we transfected NG108 cells with three versions of the Akt product—a constitutive active, a dominant negative and a wild type form (19), and compared their effects on neurite outgrowth.
Since Akt has been thought of as a positive regulator of neurite outgrowth (21), our results with over-expression of constitutively active Akt came as a surprise. […] However, expression of dominant negative Akt led to the death of the transfected CGNs, consistent with a critical role of Akt in promoting cell survival (13, 17 and 19). Thus, the neurite outgrowth response elicited by Akt activation differs in a cell type specific manner.
Growth cone responses can be converted from attraction to repulsion and vice versa through the modification of cellular cyclic nucleotide levels (12, 16, 23). […] As the PLCg pathway is activated by MAG and PKC is a major effector of PLCg (15), we assessed whether changes in PKC activity could affect the activity of different forms of Akt in NG-108 cells on the PDL substrate.

[3] = biological target: protein kinase C; settings: cited from earlier work
[4] = system: P7 rat CGNs injected into the ventral funiculus of the adult rat spinal cord; experiment: intra white matter transplantation of CGNs; format: in vivo; settings: two weeks after transplantation; CGNs pretreated with 50 nM
Protocol: We thus injected vehicle or Gö6976-treated P7 rat CGNs into the ventral funiculus of the adult rat spinal cord and examined neurite outgrowth of these transplanted neurons within the white matter that is largely composed of myelinated axons (26).
26. Intra white matter transplantation of CGNs. P7 CGN (50,000 cells/ml) were prelabeled with Cell Tracker CM-DiI (1 mM; Molecular Probes, Eugene, Oreg.), pretreated with PBS or 50 nM Gö6976, and microinjected at the level of T9 into the spinal cord ventral funiculus of adult Sprague-Dawley rats ([…]; N=3 for each group). Two pieces of 2 mm^3 gelfoam (Pharmacia & Upjohn, Kalamazoo, Mich.) soaked with PBS or 500 nM Gö6976 were placed onto the spinal dura where the penetration for cell injection occurred. Spinal cords (8 mm in length centered around the CGN injection site) were collected 2 weeks after surgery, and […] sagittal sections were made. DiI positive CGNs were examined with a fluorescent microscope (Omega XF-32 optical filter) in all sections of each cord to evaluate cell survival (27). Percentages of the neurite-bearing CGNs and CGNs with neurites longer than twice the soma length were quantified among 400 CGNs from a single […] of each cord that had the highest number of neurite-bearing CGNs.

[5] = system: CGNs on MAG, Nogo-A and OMgp; experiment: neurite outgrowth on individual myelin inhibitors; format: cell-based, rat
Protocol: […] Based on their structure and substrate requirements, PKC isoforms can be divided into three classes: the Ca++ and second messenger diacylglycerol (DAG)-sensitive conventional PKCs (-α, -β, and -γ), the Ca++-independent but DAG-dependent novel PKCs (-δ, -ε, -η, -θ, and -μ), and the Ca++- and DAG-insensitive atypical PKCs (-ζ and -λ). […] These inhibitors included Chelerythrine, Calphostin, Bisindoleylmaleimide I, and Gö6976. Dose response experiments (in the range of 10 nM to 10 uM) were carried out for each PKC inhibitor.

[6] = system: dorsal column ascending axons; experiment: dorsal column axonal regeneration after C3-4 spinal dorsal hemisection; format: in vivo, adult rats
Protocol: To assess the contribution of PKC mediated inhibitory effects on axon regeneration in vivo, we examined whether intrathecal infusion of Gö6976 affected regeneration of dorsal column ascending axons following spinal cord dorsal hemisection in adult rats. The hemisection was performed between the 3rd and 4th cervical spinal segments (C3-4) to a depth of 1.6 mm from the dorsal surface of the cord using a VibraKnife device that can be used to precisely control the lesion depth stereotaxically. To ensure that bilateral dorsal columns were completely transected, the lesion was advanced ventrally to the level of central cannel resulting in the transection of the entire dorsal half of the spinal cord. After the lesion, dura mater was sutured to restore cerebespinal fluid circulation and to prevent connective tissue invasion. Intrathecal delivery of Gö6976 (20 uM) or saline vesicle into the lesion site was achieved by constant infusion of the compound at a rate of 0.5 ul/hr for 14 days using an Alzet mini-osmotic pump (Model 2002). Five weeks after surgery, a narrow lesion gap through the dorsal half of the cord was clearly seen, confirming the completeness of dorsal column transection. […] Anatomical regeneration of injured dorsal column axons was assessed by anterograde tracing of Cholera toxin B subunit (CTB) which was injected into bilateral sciatic nerves and brachial plexuses.

[7] = system: RhoA; experiment: RhoA pull down assay in stimulated CGNs; format: cell-based, rat; settings: cultured CGNs
Excerpt: We also assessed whether individual inhibitors affect endogenous PKC activity in treated neurons. […] To further confirm the role of PKC as a direct signaling mediator, we examined whether PKC activation by myelin inhibitors is dependent on NgR, a required receptor component for all of the three major myelin inhibitors. Thus, we used recombinant retroviruses to overexpress full-length or dominant negative NgR in CGNs and examined PKC activation in these transduced neurons by NgR ligands. […] An additional and critical signaling event shared by these inhibitory activities is the activation of the small GTPase RhoA. In order to determine the relationship between PKC and RhoA in these pathways, we stimulated cultured CGNs with MAG-Fc, AP-Nogo-66 or CSPG in the presence or absence of Gö6976 and examined the RhoA activation in these conditions by subjecting the resulting cell lysates to a RhoA pull down assay. […] Thus, conventional PKCs participate in transducing the inhibitory signals of both myelin inhibitors and CSPG from their specific cell surface receptors to activate RhoA.

[8] = system: NG108 cells or cerebellar granule neurons (CGN) on immobilized recombinant MAG; experiment: neurite outgrowth assay on immobilized recombinant MAG; format: cell-based, rat
Protocol: as §1

[9] = system: NG108 cells and CGNs; experiment: toxicity to cultured neuronal cells; format: cell-based, rat; settings: even at 100 nM
Protocol: as §1

[10] = system: CGNs, DRG sensory neurons or NG108 cells on immobilized CNS myelin; settings: previously shown; cited from earlier work
[11] = system: neurons on CSPG substrate; experiment: neurite outgrowth on CSPG substrate; format: cell-based, rat
Excerpt: We examined whether PKC is involved in the inhibitory activity of CSPG, the other major inhibitory activity associated with glial scars in the adult CNS.

[12] = NG-108 cells, 10 (unit uncertain)

bisindolylmaleimide [GFX]
neurite outgrowth on immobilized CNS myelin [1]: profoundly affected neurite outgrowth by enhancing both the number of neurite-bearing cells and the length of neurites | neurite outgrowth from untransfected cells and wild type Akt transfected cells [2]: did not result in significant alterations in neurite outgrowth | process extension of constitutively active Akt expressing NG108 cells ([2]; PDL substrate, 5 (unit uncertain)): the majority of constitutively active Akt expressing NG108 cells extended processes

CC1CNCCN1S(=O)(=O)c1cccc2cnccc12 (racemic) [compound 542, (+−)-1-(5-Isoquinolinesulfonyl)-2-methylpiperazine dihydrochloride]
IC50 [3]: 6 µM

O=S(=O)(c1cccc2cnccc12)N1CCNCC1 [compound 543, 1-(5-Isoquinolinesulfonyl)piperazine]
IC50 [3]: 6 µM

CCCCCCCCCCCCCC(=O)O[C@@H]1[C@@H](C)[C@@]2(O)[C@@H](C=C(CO)C[C@]3(O)C(=O)C(C)=C[C@@H]23)[C@@H]2C(C)(C)[C@]12OC(C)=O [PMA, phorbol myristate-13-acetate]
neurite outgrowth from untransfected cells and wild type Akt transfected cells [2]: did not result in significant alterations in neurite outgrowth | neurite outgrowth promoting activity of active Akt in CGNs ([2]; CGNs): abolished the neurite outgrowth promoting activity of active Akt | neurite outgrowth from NG108 cells expressing dominant negative Akt ([2]; PDL substrate, 100 nM): resulted in inhibition of neurite outgrowth

Cn1c2ccccc2c2c3c(c4c5ccccc5n(CCC#N)c4c21)CNC3=O [Gö6976]
donor neurons bearing neurites [4]: 85% | neurite-bearing neurons with neurites longer than twice their soma diameters [4]: 80% | neurite outgrowth inhibition induced by MAG, Nogo-A and OMgp [5]: efficiently overcame neurite outgrowth inhibition | neurite outgrowth on immobilized CNS myelin [1]: profoundly affected neurite outgrowth by enhancing both the number of neurite-bearing cells and the length of neurites | neurite outgrowth on a CNS myelin substrate ([1]; P7-9 rat CGNs): profoundly mitigated outgrowth inhibition and promoted significant neurite outgrowth | regeneration of CTB-labeled dorsal column axons across the lesion ([6]; 20 uM intrathecal, 0.5 ul/hr for 14 days, five weeks after surgery): CTB-labeled axons were seen to cross the lesion gap and grow within the distal host spinal cord for a considerable distance | distance distal to the injury at which many regenerated axons ended ([6]; 20 uM intrathecal, 0.5 ul/hr for 14 days, longest distance examined): 7 mm | functional connections and recovery ([6]; subsequent studies): improves physiological and behavioral recovery | MAG-Fc, AP-Nogo-66 and CSPG induced RhoA activation [7]: blocked MAG-Fc, AP-Nogo-66 and CSPG induced RhoA activation in a dose dependent manner

CC(NC(=O)C(NC(=O)OCc1ccccc1)C(C)C)C(=O)NC(CC(=O)O)C(=O)CF (stereo not drawn) [ZVAD] (Cbz-Val-Ala-Asp-CH2F; configuration not given here)
cell survival [2, 12]: enhancing cell survival | effect on pro-growth effect of dominant negative Akt [2, 12]: did not affect the pro-growth effect of the dominant negative form of Akt

N#CC(=C(/N)Sc1ccccc1N)/C(C#N)=C(\N)Sc1ccccc1N [U0126]
neurite outgrowth on the MAG substrate [8]: promoted neurite outgrowth

COc1ccc2c(c1)CC[C@@H]1[C@@H]2CC[C@]2(C)[C@@H](NCCCCCCN3C(=O)C=CC3=O)CC[C@@H]12 [U73122]
toxicity to cells [9]: appeared toxic

Nc1ncnc2c1ncn2[C@@H]1O[C@@H]2COP(O)(=S)O[C@H]2[C@H]1O (some centres unmarked) [sp-cAMP]
neurite outgrowth on immobilized CNS myelin [1]: stimulated neurite outgrowth

calphostin C
neurite outgrowth inhibition induced by MAG, Nogo-A and OMgp [5]: efficiently overcame neurite outgrowth inhibition | neurite outgrowth on immobilized CNS myelin [1]: profoundly affected neurite outgrowth by enhancing both the number of neurite-bearing cells and the length of neurites | neurite outgrowth on a CNS myelin substrate ([1]; P7-9 rat CGNs): profoundly mitigated outgrowth inhibition and promoted significant neurite outgrowth

Nc1nc2c(nc(Br)n2[C@@H]2O[C@@H]3COP(O)(=S)O[C@H]3[C@H]2O)c(=O)[nH]1 (some centres unmarked) [Rp-8-Br-cGMPS]
neurite outgrowth on CNS myelin substrate ([1]; P7-9 rat CGNs): failed to overcome the inhibitory effects of CNS myelin

C[C@@H](N)[C@H]1CC[C@H](C(=O)Nc2ccncc2)CC1 [Y-27632]
block of the inhibitory activity of CNS myelin and its components [10]: block the inhibitory activity of CNS myelin and its components | effect on CSPG substrate relative to chondroitinase ABC [11]: stronger effects than chondroitinase ABC | neurite outgrowth from neurons on CSPG substrate [11]: allowed the cultured neurons to overcome the inhibitory activity of CSPG

Reference: US6815450B2, “Axon regeneration with PKC inhibitors” (Children's Medical Center Corporation, priority 2002, dated 2004)
